For data set [1] the following is noted: 308.15 K; 101.33 kPa; Liquid; Vibrating tube method.
A short description of data set [2]: activity coefficient (dimensionless); of the first substance listed, at infinite dilution; xn = mol fraction of the nth substance listed. Particulars: Liquid, Chromatography, x1 = 0.

6 compounds from the NIST ThermoML archive (doi:10.1016/j.jct.2010.01.004) can be followed below.

SMILES strings stand for the structures. ± gives the expanded uncertainty stated by the source.

For orientation: mass density means mass per unit of volume.

In the case of `CC(C)C[P+](C)(CC(C)C)CC(C)C.Cc1ccc(S(=O)(=O)[O-])cc1` [triisobutylmethylphosphonium p-toluenesulfonate], in data set [1], the mass density is on record as 1061 ± 3 kg/m3.
With `C=CCCCCC` [1-heptene] + CC(C)C[P+](C)(CC(C)C)CC(C)C.Cc1ccc(S(=O)(=O)[O-])cc1, the activity coefficient in data set [2] (298.15 K) turned out to be 19.2 ± 1.3; in data set [2] (308.15 K), 14.6 ± 1; in data set [2] (318.15 K), 11.9 ± 0.8; in data set [2] (328.15 K), 9.62 ± 0.66.
On the same counts, the results for `C#CCCCCC` [1-heptyne] + CC(C)C[P+](C)(CC(C)C)CC(C)C.Cc1ccc(S(=O)(=O)[O-])cc1 are 2.57 ± 0.17, 2.62 ± 0.18, 2.54 ± 0.17 and 2.54 ± 0.17.
As to `Cc1ccccc1` [toluene] + CC(C)C[P+](C)(CC(C)C)CC(C)C.Cc1ccc(S(=O)(=O)[O-])cc1, the activity coefficient in data set [2] (298.15 K) is 1.94 ± 0.13; in data set [2] (308.15 K), 1.81 ± 0.12; in data set [2] (318.15 K), 1.78 ± 0.12; in data set [2] (328.15 K) it was 1.69 ± 0.11; in data set [2] (338.15 K), 1.66 ± 0.11; in data set [2] (348.15 K), 1.65 ± 0.11. For the same compound, the activity coefficient in data set [2] (358.15 K) amounted to 1.64 ± 0.11; in data set [2] (368.15 K) it was 1.61 ± 0.11.
Take `CCc1ccccc1` [ethylbenzene] + CC(C)C[P+](C)(CC(C)C)CC(C)C.Cc1ccc(S(=O)(=O)[O-])cc1: the activity coefficient in data set [2] (298.15 K) came out at 2.51 ± 0.17; in data set [2] (308.15 K) it was 2.37 ± 0.16; in data set [2] (318.15 K) it was 2.33 ± 0.16; in data set [2] (328.15 K), 2.25 ± 0.15; in data set [2] (338.15 K) it was 2.2 ± 0.15; in data set [2] (348.15 K), 2.17 ± 0.15. The activity coefficient was found to be 2.16 ± 0.15 in data set [2] (358.15 K) and 2.09 ± 0.14 in data set [2] (368.15 K).
As to `CO` [methanol] + CC(C)C[P+](C)(CC(C)C)CC(C)C.Cc1ccc(S(=O)(=O)[O-])cc1, the activity coefficient in data set [2] (298.15 K) amounted to 0.168 ± 0.029; in data set [2] (308.15 K) it was 0.164 ± 0.029; in data set [2] (318.15 K), 0.166 ± 0.029; in data set [2] (328.15 K) it was 0.167 ± 0.029; in data set [2] (338.15 K), 0.171 ± 0.029; in data set [2] (348.15 K), 0.175 ± 0.029. In addition, the activity coefficient in data set [2] (358.15 K) is 0.178 ± 0.029; in data set [2] (368.15 K) it was 0.179 ± 0.029.
